Measurements as given in US12360121B2, “Assay for detection of an A2E-Saposin B complex” (Syracuse University, priority 2016, dated 2025).

Biological target: T1, Saposin B (Homo sapiens, UniProt P07602)
T1 sequence (P07602 195-273 limits assumed): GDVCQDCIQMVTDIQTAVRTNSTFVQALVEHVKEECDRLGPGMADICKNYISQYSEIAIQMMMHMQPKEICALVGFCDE
Experiment: fluorescence spectroscopy showing binding of A2E by Saposin B
Details: fluorescence spectroscopy graphs (FIG. 1A, FIG. 1B)
Source text: FIG. 1A is a first fluorescence spectroscopy graph showing that Saposin B binds A2E;
FIG. 1B is a second fluorescence spectroscopy graphs showing that Saposin B binds A2E;

SMILES: CC(C=CC1=C(C)CCCC1(C)C)=CC=CC(C)=Cc1cc(C=CC=C(C)C=CC2=C(C)CCCC2(C)C)cc[n+]1CCO [A2E, N-retinylidene-N-retinylethanolamine]
- binding of A2E by Saposin B: binds
